Reference: patent publication US20090155245A1, “Treatment for Organ Regeneration with Combination of Drug and Biologics” (priority 2007, published 2009)
Entries after “also recorded” stand apart in the source; their conditions may differ.

Columns and labels:
5/6 nephrectomy rats = test: 5/6 nephrectomy (Nx) rat study of chronic renal failure; type: in vivo, rat (inbred Lewis); details: 5/6 Nx rats, rhGDF-5 50 μg/kg ip 3 times per week
Description: Both sham and 5/6 Nx performed rats were treated 4 weeks post surgery with different reagents as indicated. The effects of the treatment were analyzed every two weeks through blood and urine sample analysis consisting of hematology, serum and urine chemistry and proteinuria. After 10 weeks of treatment, kidney samples were taken from the right kidney and evaluated using histopathology for glomerulorsclerosis, interstitial fibrosis and tubular degemation. All the data were converted to a weighted ranking system from 1 to 10 and averaged for the 10 weeks. A better efficacy from a treatment receives a higher score and the maximum score is the level for sham group. […]
rhGDF-5 was administrated 3 times per week at 50 μg/kg by ip. […] Effects of these treatments on kidney function was evaluated every two weeks by monitoring clinical observations, body weights, urine volume and duration of collection, and clinical pathology parameters through blood and urine sample analysis (hematology, serum chemistry, and urine chemistry). Residual urine samples were also evaluated for protein levels, beginning on Day 28, by AniLytics, Inc. On Day 70, surviving animals were euthanized and subjected to a limited necropsy, consisting of collection of the right kidney (2 sham groups) or the remaining third of the right kidney (all the Nx groups). […]

UUO induced renal injury = test: Unilateral Ureter Obstruction (UUO) model, H&E histology renal injury scoring; type: in vivo, mice (C57BL/6); details: UUO mice, 12 days of treatment, vs vehicle; rhGDF-5 300 μg/kg ip 3x/week, SD282 60 mg/kg gavage twice daily
Source text: The theraputic effects of rhGDF-5 was further tested along with SD282 in Unilateral Ureter Obstruction Model (UUO) in the present invention. Mice were subjected to unilateral ureter obstruction and treatment started on the same day as the UUO surgery. After 12 days of treatment, the obstructed kidneys were harvested for Hematoxylin and Eosin (H&E) staining and RT-PCR analysis. […] CCL2 induces recruitment of monocytes, T lymphocytes, eosinophils, and basophils and is responsible for many inflammatory reactions to disease, and has been linked to recruitment of osteoclast precursors. PDGF plays a role in embryonic development, cell proliferation, cell migration, and angiogenesis. […] The efficacy of rhGDF-5 was further tested along with SD282 in a mouse UUO model. Treatment started on the same day of the UUO, and included rhGDF-5 and SD282. At the end of the 12-day treatment, histology scoring and gene expression analysis was preformed on endpoint measurements. Unilateral Ureter Obstruction Model (“UUO”) was used because it is a commonly used mouse model for progressive tubulointerstitial fibrosis in the kidney. Male C57BL/6 mice were purchased at age 6 to 8 weeks from Jackson Labs (Bar Harbor, Me.). They were housed in an animal facility that was maintained at 25° C. with a 12-hour light-dark cycle. […]

[1] = system: chemokine ligand 2 (CCL2) gene expression; test: UUO model, RT-PCR gene expression analysis of obstructed kidney (CCL2); type: in vivo, mice (C57BL/6); details: UUO mice, 12 days of treatment, vs controls
Source text: (§1) The theraputic effects of rhGDF-5 was further tested along with SD282 in Unilateral Ureter Obstruction Model (UUO) in the present invention. Mice were subjected to unilateral ureter obstruction and treatment started on the same day as the UUO surgery. After 12 days of treatment, the obstructed kidneys were harvested for Hematoxylin and Eosin (H&E) staining and RT-PCR analysis. […] CCL2 induces recruitment of monocytes, T lymphocytes, eosinophils, and basophils and is responsible for many inflammatory reactions to disease, and has been linked to recruitment of osteoclast precursors. PDGF plays a role in embryonic development, cell proliferation, cell migration, and angiogenesis.
(§2) The efficacy of rhGDF-5 was further tested along with SD282 in a mouse UUO model. Treatment started on the same day of the UUO, and included rhGDF-5 and SD282. At the end of the 12-day treatment, histology scoring and gene expression analysis was preformed on endpoint measurements.
(§3) Experimental animals were treated with rhGDF-5, 3 times per week, via ip injection at 300 μg/kg and SD282, twice, daily through gavage at 60 mg/kg dissolved in 0.5% methylcellulose. Control mice received an equal volume of 0.5% methylcellulose vehicle. Treatment dose was selected based on a review of the literature and represented the highest dose that was free of side effects in other experimental studies. […]

[2] = system: platelet-derived growth factor (PDGF) gene expression; test: UUO model, RT-PCR gene expression analysis of obstructed kidney (PDGF); type: in vivo, mice (C57BL/6); details: UUO mice, 12 days of treatment, vs controls
Source text: as §1, §2, §3

diabetic rats = test: Streptozotocin-induced diabetic nephropathy rat model; type: in vivo; details: rhGDF-5 300 μg/kg ip 3x per week
Description: The efficacy of the combination therapy was tested in a diabetic nephropathy rat model.
Diabetic condition in the animals was induced for 1 week by a single i.v. injection of Streptozotocin. Subsequently, the animals were treated for 14 weeks with or without 300 μg/kg rhGDF-5 (i.p., 3× per week), 10 mg/kg of Enalapril (gavage, once daily), or a combination of the two.
Blood glucose measurements and subcutaneous insulin administrations (as necessary) were carried out thrice weekly to maintain a glucose level between 280 and 400 mg/dL. Urine samples were collected every two weeks; blood samples collected every four weeks for measuring level of urine microalbumin, serum creatinine, blood urea nitrogen, and urine creatinine. On week fourteen, a final set of samples was collected; then the animals were euthanized and subjected to a limited necropsy involving the collection of the kidneys. One kidney from each animal was flash frozen for gene expression analysis as needed and the other preserved in 10% neutral buffered formalin, after which it was examined microscopically.
Histological examination was performed on the kidneys. […] Slides were evaluated on the basis of morphologic changes according to the following grading scheme: 0=within normal limits; 1=minimal; 2=mild; 3=moderate. All microscopic slides were evaluated and gross and microscopic findings were reported.

Substance: rhGDF-5: recombinant human Growth and Differentiation factor-5, a protein belonging to the TGF-β superfamily (morphogen)
- blood urea nitrogen levels (5/6 nephrectomy rats): some effect on reducing blood urea nitrogen levels
- renal injury score (histology scoring, H&E) (UUO induced renal injury): reduced renal structural damage; also recorded: reduced renal injury score
- CCL2 gene expression [1]: decreased expression of CCL2; also recorded: prevents chemokine ligand 2 (CCL2)
- PDGF gene expression [2]: decreased expression; also recorded: prevents
- urine microalbumin / protein level in urine (diabetic rats): comparable efficacy on reducing urine micro albumine level; also recorded: comparable effect on reducing protein level in urine
